Data on 13 molecules can be found in patent US9850283B2, “Macrocyclic inhibitors of the PD-1/PD-L1 and CD80(B7-1)/PD-L1 protein/protein interactions” (BRISTOL-MYERS SQUIBB COMPANY, priority 2013, dated 2017).

In assay [1] the target is Hu PD-L1/PD-1 (Homo sapiens, UniProt Q9NZQ7). Nature of the assay: Cell binding assay Hu PD-L1/PD-1 (Tables 11-13, cell line not given). The format is cell-based. Here is the method:
The ability of the macrocyclic peptides of the present disclosure to bind to Jurkat, mouse B cell line (LK35.2), and a human lung adenocarcinoma cell line (L2987) was investigated. Jurkat-PD-1 Cell Binding Assay. Phycoerythrin (PE) was covalently linked to the Ig epitope tag of human PD-L1-Ig and fluorescently-labeled PD-L1-Ig was used for binding studies with a Jurkat cell line over-expressing human PD-1 (Jurkat-PD-1). […] Cells were washed 3× in dPBS. Cells were resuspended in 200 μl of dPBS and binding was measured by flow cytometry. LK35.2-hPD-L1 Cell Binding Assay. Phycoerythrin (PE) was covalently linked to the Ig eptitope tag of human PD-1-Ig and fluorescently-labeled PD-1-Ig was used for binding studies with a mouse B cell line (LK35.2) stably over-expressing human PD-L1 (LK35.2-hPD-L1). Briefly, […] LK35.2-hPD-L1 cells were pre-incubated with inhibitor for 15 m in a 30 μl volume of RPMI supplemented with 2% fetal calf serum. 20 μl of PE-labeled PD-1-Ig (2 nM final), diluted in RPMI supplemented with 2% fetal calf serum, was dispensed on top of cells and inhibitor and binding was allowed to take place for 1 h at room temperature. Cells were washed 3× in dPBS. Cells were resuspended in 200 μl of dPBS and binding was measured by flow cytometry. L2987 Cellomics Cell Binding Assay. Phycoerythrin (PE) was covalently linked to the Ig eptitope tag of human PD-1-Ig and fluorescently-labeled PD-1-Ig was used for binding studies with a human lung adenocarcinoma cell line (L2987) which naturally expresses PD-L1. […] The following day, inhibitors were diluted in serum-free DMEM and 25 μl was dispensed on top of cells. […] Samples were incubated for 1 h at 37° C. followed by 2 washes in dPBS and fixation for 30 m with 4% paraformaldehyde. Samples were further washed 2× in dPBS. Hoechst (final 1 μg/ml) was added to final wash to stain nuclei. Plates were processed using a Cellomics […]®.

The target of assay [2] is T1, Human PD-L1/PD-1 (Homo sapiens, UniProt Q9NZQ7).
T1 construct: made in house; host or cells: HEK293T
T1 sequence (Q9NZQ7 with tags, fused parts or gaps): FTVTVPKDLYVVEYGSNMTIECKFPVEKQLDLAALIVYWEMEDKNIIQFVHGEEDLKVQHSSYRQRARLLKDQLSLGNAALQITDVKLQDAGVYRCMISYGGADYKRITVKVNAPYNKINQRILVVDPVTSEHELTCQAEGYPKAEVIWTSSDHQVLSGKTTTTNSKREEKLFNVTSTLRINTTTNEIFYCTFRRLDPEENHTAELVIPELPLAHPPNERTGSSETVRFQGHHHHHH
Nature of the assay: HTRF PD-1-Ig/PD-L1-His binding assay (human PD-L1). Particulars: read-out: HTRF Human PD-L1/PD-1 Binding Assay IC50. The procedure, abridged: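 Ig- and His-fused extracellular PD-1/PD-L1 binding in BSA/Tween-20 dPBS. HTRF with Eu anti-Ig (1 nM final) and APC anti-His (20 nM final).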
A general note: TR-FRET usually uses a lanthanide donor and a delayed reading to cut background.

The mark [3] stands for this setting: Table 8, Compound No. 1 variant macrocyclic peptides.
The mark [4] stands for this setting: Table 13, Compound No. 71 series.
Setting [5] is: Table 9, Compound No. 71 variant macrocyclic peptides.

Like-named read-outs stand apart in the source and are kept apart here. Positions of bridges follow the written chain, without caps; N, C: chain ends. Non-standard residues stand in square brackets, D forms with d. Residues, ends and D or L forms follow the SMILES beside them. ξ: configuration not given here. Phe(4-Cl) = N[C@@H](Cc1ccc(Cl)cc1)C(=O)O; 1Nal = N[C@@H](Cc1cccc2ccccc12)C(=O)O; 2Nal = N[C@@H](Cc1ccc2ccccc2c1)C(=O)O; NMeF = CN[C@@H](Cc1ccccc1)C(=O)O; 3Thi = N[C@@H](Cc1ccsc1)C(=O)O; NMeNle = CCCC[C@H](NC)C(=O)O; ξY = NC(Cc1ccc(O)cc1)C(=O)O; NMeA = CN[C@@H](C)C(=O)O; ξNMeA = CNC(C)C(=O)O; ξP = O=C(O)C1CCCN1; ξC = NC(CS)C(=O)O; Sar = CNCC(=O)O

Sequence of Hu PD-L1/PD-1 (Q9NZQ7 19-290): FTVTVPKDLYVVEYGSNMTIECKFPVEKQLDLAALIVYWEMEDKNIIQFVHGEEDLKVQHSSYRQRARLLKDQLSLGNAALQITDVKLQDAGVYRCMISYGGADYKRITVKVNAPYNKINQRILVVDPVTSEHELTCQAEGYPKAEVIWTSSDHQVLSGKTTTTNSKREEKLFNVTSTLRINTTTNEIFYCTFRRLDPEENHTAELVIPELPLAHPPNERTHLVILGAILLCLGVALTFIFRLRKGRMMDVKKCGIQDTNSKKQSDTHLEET

As for `CCCC[C@H]1C(=O)N[C@@H](CCCNC(=N)N)C(=O)N[C@H](C(=O)NCC(N)=O)CSCC(=O)N[C@@H](Cc2ccccc2)C(=O)N(C)[C@@H](C)C(=O)N[C@@H](CC(N)=O)C(=O)N2CCCC2C(=O)N[C@@H](Cc2cnc[nH]2)C(=O)N[C@@H](CC(C)C)C(=O)N(C)CC(=O)N[C@@H](Cc2c[nH]c3ccccc23)C(=O)N[C@@H](CO)C(=O)N[C@@H](Cc2c[nH]c3ccccc23)C(=O)N(C)[C@@H](C)C(=O)N1C` (some centres unmarked) [Compound No. 19] ({CH2CO}-F[NMeA]N[ξP]HL[Sar]WSW[NMeA][NMeNle]RCG-NH2; thioether N-14), the IC50 was found to be 134 nM in assay [1] and 33 nM in assay [2] (setting [3]).
For `CCCC[C@H]1C(=O)N(C)[C@@H](CCCC)C(=O)N[C@@H](C)C(=O)N[C@H](C(=O)NCC(N)=O)CSCC(=O)N[C@@H](Cc2ccccc2)C(=O)N(C)[C@@H](C)C(=O)N[C@@H](CC(N)=O)C(=O)N2CCCC2C(=O)N[C@@H](Cc2cnc[nH]2)C(=O)N[C@@H](CC(C)C)C(=O)N(C)CC(=O)N[C@@H](Cc2c[nH]c3ccccc23)C(=O)N[C@@H](CO)C(=O)N[C@@H](Cc2c[nH]c3ccccc23)C(=O)N1C` (some centres unmarked) [Compound No. 22], in that order: 28 nM and 3 nM.
For `CCCC[C@H]1C(=O)N(C)[C@@H](CCCC)C(=O)N[C@@H](CCCNC(=N)N)C(=O)N[C@@H](C(=O)NCC(N)=O)CSCC(=O)N[C@@H](Cc2ccc3ccccc3c2)C(=O)N(C)[C@@H](C)C(=O)N[C@@H](CC(N)=O)C(=O)N2CCC[C@H]2C(=O)N[C@@H](Cc2cnc[nH]2)C(=O)N[C@@H](CC(C)C)C(=O)N(C)CC(=O)N[C@@H](Cc2c[nH]c3ccccc23)C(=O)N[C@@H](CO)C(=O)N[C@@H](Cc2c[nH]c3ccccc23)C(=O)N1C` [Compound No. 26] ({CH2CO}-[2Nal][NMeA]NPHL[Sar]WSW[NMeNle][NMeNle]R[dC]G-NH2; thioether N-14), in that order: 13 nM and 15 nM.
The like results for `CCCC[C@H]1C(=O)N(C)[C@@H](CCCC)C(=O)N[C@@H](CCCNC(=N)N)C(=O)N[C@@H](C(=O)NCC(N)=O)CSCC(=O)N[C@@H](Cc2cccc3ccccc23)C(=O)N(C)[C@@H](C)C(=O)N[C@@H](CC(N)=O)C(=O)N2CCC[C@H]2C(=O)N[C@@H](Cc2cnc[nH]2)C(=O)N[C@@H](CC(C)C)C(=O)N(C)CC(=O)N[C@@H](Cc2c[nH]c3ccccc23)C(=O)N[C@@H](CO)C(=O)N[C@@H](Cc2c[nH]c3ccccc23)C(=O)N1C` [Compound No. 27] ({CH2CO}-[1Nal][NMeA]NPHL[Sar]WSW[NMeNle][NMeNle]R[dC]G-NH2; thioether N-14) were, in that order, 28 nM and 20 nM.
As for `CCCC[C@H]1C(=O)N(C)[C@@H](CCCC)C(=O)N[C@@H](CCCNC(=N)N)C(=O)N[C@H](C(=O)NCC(N)=O)CSCC(=O)N[C@@H](Cc2ccc(O)cc2)C(=O)N(C)[C@@H](C)C(=O)N[C@@H](CC(N)=O)C(=O)N2CCC[C@H]2C(=O)N[C@@H](Cc2cnc[nH]2)C(=O)N[C@@H](CC(C)C)C(=O)N(C)CC(=O)N[C@@H](Cc2c[nH]c3ccccc23)C(=O)N[C@@H](CO)C(=O)N[C@@H](Cc2c[nH]c3ccccc23)C(=O)N1C` [Compound No. 30], the IC50 came out at 3 nM in assay [1] and 5 nM in assay [2] (setting [3]).
The like results for `CCCC[C@H]1C(=O)N(C)[C@@H](CCCC)C(=O)N[C@@H](CCCNC(=N)N)C(=O)N[C@H](C(=O)NCC(N)=O)CSCC(=O)N[C@@H](Cc2ccc(Cl)cc2)C(=O)N(C)[C@@H](C)C(=O)N[C@@H](CC(N)=O)C(=O)N2CCC[C@H]2C(=O)N[C@@H](Cc2cnc[nH]2)C(=O)N[C@@H](CC(C)C)C(=O)N(C)CC(=O)N[C@@H](Cc2c[nH]c3ccccc23)C(=O)N[C@@H](CO)C(=O)N[C@@H](Cc2c[nH]c3ccccc23)C(=O)N1C` [Compound No. 33] ({CH2CO}-[Phe(4-Cl)][NMeA]NPHL[Sar]WSW[NMeNle][NMeNle]RCG-NH2; thioether N-14) were, in that order, 7 nM and 9 nM.
As for `CCCC[C@H]1C(=O)N(C)[C@@H](CCCC)C(=O)N[C@@H](CCCNC(=N)N)C(=O)NC(C(=O)NCC(N)=O)CSCC(=O)N[C@@H](Cc2ccsc2)C(=O)N(C)[C@@H](C)C(=O)N[C@@H](CC(N)=O)C(=O)N2CCC[C@H]2C(=O)N[C@@H](Cc2cnc[nH]2)C(=O)N[C@@H](CC(C)C)C(=O)N(C)CC(=O)N[C@@H](Cc2c[nH]c3ccccc23)C(=O)N[C@@H](CO)C(=O)N[C@@H](Cc2c[nH]c3ccccc23)C(=O)N1C` (some centres unmarked) [Compound No. 40] ({CH2CO}-[3Thi][NMeA]NPHL[Sar]WSW[NMeNle][NMeNle]R[ξC]G-NH2; thioether N-14), the IC50 in assay [1] turned out to be 20 nM; in assay [2] (setting [3]) it was 9 nM.
The like results for `CCCC[C@H]1C(=O)N(C)[C@@H](CCCC)C(=O)N[C@@H](CCCNC(=N)N)C(=O)N[C@H](C(=O)NCC(N)=O)CSCC(=O)N[C@@H](Cc2ccccc2)C(=O)N(C)[C@@H](C)C(=O)N[C@@H](CC(N)=O)C(=O)N2CCC[C@H]2C(=O)N[C@@H](Cc2c[nH]cn2)C(=O)N[C@@H](CC(C)C)C(=O)N[C@@H](CCN)C(=O)N[C@@H](Cc2c[nH]c3ccccc23)C(=O)N[C@@H](CO)C(=O)N[C@@H](Cc2c[nH]c3ccccc23)C(=O)N1C` [Compound No. 52] were, in that order, 108 nM and 24 nM.
The like results for `CCCC[C@H]1C(=O)N(C)[C@@H](CCCC)C(=O)N[C@@H](CCCNC(=N)N)C(=O)N[C@H](C(=O)NCC(N)=O)CSCC(=O)N[C@@H](Cc2ccccc2)C(=O)N(C)C(C)C(=O)N[C@@H](CC(N)=O)C(=O)N2CCC[C@H]2C(=O)N[C@@H](Cc2cnc[nH]2)C(=O)N[C@@H](CC(C)C)C(=O)N[C@@H](Cc2cnc[nH]2)C(=O)N[C@@H](Cc2c[nH]c3ccccc23)C(=O)N[C@@H](CO)C(=O)N[C@@H](Cc2c[nH]c3ccccc23)C(=O)N1C` (some centres unmarked) [Compound No. 53] ({CH2CO}-F[ξNMeA]NPHLHWSW[NMeNle][NMeNle]RCG-NH2; thioether N-14) were, in that order, 47 nM and 34 nM.
For `CCCC[C@H]1C(=O)N(C)[C@@H](CCCC)C(=O)N[C@@H](CCCNC(=N)N)C(=O)N[C@H](C(=O)NCC(N)=O)CSCC(=O)N[C@@H](Cc2ccccc2)C(=O)N(C)[C@@H](C)C(=O)N[C@@H](CC(N)=O)C(=O)N2CCC[C@H]2C(=O)N[C@@H](Cc2cnc[nH]2)C(=O)N[C@@H](CC(C)C)C(=O)N2CCC[C@H]2C(=O)N[C@@H](Cc2c[nH]c3ccccc23)C(=O)N[C@@H](CO)C(=O)N[C@@H](Cc2c[nH]c3ccccc23)C(=O)N1C` [Compound No. 55] ({CH2CO}-F[NMeA]NPHLPWSW[NMeNle][NMeNle]RCG-NH2; thioether N-14), in that order: 3 nM and 4 nM.
`CCCC[C@H]1C(=O)N(C)[C@@H](CCCC)C(=O)N[C@@H](CCCNC(=N)N)C(=O)N[C@H](C(=O)NCC(N)=O)CSCC(=O)N[C@@H](Cc2ccccc2)C(=O)N(C)[C@@H](C)C(=O)N[C@@H](CC(N)=O)C(=O)N2CCC[C@H]2C(=O)N[C@@H](Cc2cnc[nH]2)C(=O)N[C@@H](CC(C)C)C(=O)N(C)CC(=O)N[C@@H](Cc2c[nH]c3ccccc23)C(=O)N[C@H](CC(N)=O)C(=O)N[C@@H](Cc2c[nH]c3ccccc23)C(=O)N1C` [Compound No. 58] ({CH2CO}-F[NMeA]NPHL[Sar]W[dN]W[NMeNle][NMeNle]RCG-NH2; thioether N-14): the results for the IC50 in assay [1] and in assay [2] (setting [3]) were more than 10000 nM and 8980 nM, respectively.
As to `CCCC[C@H]1C(=O)N(C)CC(=O)N[C@@H](CC(=O)O)C(=O)N[C@@H](C(C)C)C(=O)N(C)[C@@H](Cc2ccccc2)C(=O)N[C@@H](Cc2ccc(O)cc2)C(=O)N(C)CC(=O)N[C@@H](Cc2c[nH]c3ccccc23)C(=O)NC(Cc2ccc(O)cc2)C(=O)N[C@@H](CC(C)C)C(=O)N[C@H](C(=O)NCC(N)=O)CSCC(=O)N[C@@H](Cc2ccccc2)C(=O)N[C@@H](Cc2ccccc2)C(=O)N1C` (some centres unmarked) [Compound No. 74] ({CH2CO}-FF[NMeNle][Sar]DV[NMeF]Y[Sar]W[ξY]LCG-NH2; thioether N-13), the IC50 in assay [1] (setting [4]) and in assay [2] (setting [5]) was more than 10000 nM throughout.
On to `CCCC[C@@H]1NC(=O)[C@H](Cc2ccccc2)N(C)C(=O)[C@H](Cc2ccccc2)NC(=O)CSC[C@@H](C(=O)NCC(N)=O)NC(=O)[C@H](CC(C)C)NC(=O)[C@H](Cc2ccc(O)cc2)NC(=O)[C@H](Cc2c[nH]c3ccccc23)NC(=O)CN(C)C(=O)[C@H](Cc2ccc(O)cc2)NC(=O)[C@H](Cc2ccccc2)N(C)C(=O)[C@H](C(C)C)NC(=O)[C@H](CC(=O)O)NC(=O)CN(C)C1=O` [Compound No. 76] (HELM PEPTIDE1{[O=C(C[*:3])[*:2]].F.[meF].[Nle].[Sar].D.V.[meF].Y.[Sar].W.Y.L.C.G.[am]}$PEPTIDE1,PEPTIDE1,1:R3-14:R3$$$V2.0), for which the IC50 in assay [1] (setting [4]) and in assay [2] (setting [5]) was more than 10000 nM throughout.
